Laboratory results: US10406335B2, “Drug delivery systems and methods for treatment of prostate” (TARIS Biomedical LLC, priority 2012, dated 2019)

Key:
[1] = 14C gemcitabine tissue uptake after intra-urinary bladder perfusion or IV bolus in rats; assay type: in vivo, male Sprague Dawley rats
Method: The 6- and 24-hour continuous perfusions perfused 6.9 and 26.6 mg, respectively, of gemcitabine into the bladder. The single IV bolus included 5.0 mg of gemcitabine.
Blood (FIG. 8), urine, and tissue samples (e.g., bladder, prostate) (FIGS. 7 and 9) were collected and analyzed for gemcitabine content. The results are illustrated in FIGS. 7-9.

[2] = test system: prostate cancer; conditions: Phase 2 clinical studies; cited from earlier work
[3] = Oxaliplatin or cisplatin tissue uptake after intra-urinary bladder perfusion or IV bolus in rats; conditions: 6- or 24-hour continuous bladder perfusion; FIG. 10 and FIG. 11

| SMILES | gemcitabine levels in bladder tissue ([1]; 6- or 24-hour continuous bladder perfusion (6.9 and 26.6 mg), sustained urine concentrations, FIG. 9) | concentration of gemcitabine in the bladder ([1]; 24 hours after a clinically relevant IV dose (5.0 mg bolus), compared with bladder perfusion, FIG. 9) | prostate gemcitabine tissue concentrations ([1]; after bladder perfusion, compared with IV administration, FIG. 7) | efficacy in prostate cancer patients [2] | bladder concentrations [3] |
| --- | --- | --- | --- | --- | --- |
| Nc1ccn([C@@H]2O[C@H](CO)[C@@H](O)C2(F)F)c(=O)n1 [gemcitabine] | at or exceed therapeutic concentrations | significantly lower concentration | substantially higher than those observed after IV administration | limited efficacy | – |
| O=C1[O][Pt]2([NH][C@@H]3CCCC[C@H]3[NH]2)[O]C1=O [oxaliplatin] | – | – | – | – | achieving therapeutic bladder concentrations |
